The source of these data is ChEMBL document CHEMBL4627392, “Streptomyces albogriseolus SY67903 Produces Eunicellin Diterpenoids Structurally Similar to Terpenes of the Gorgonian Muricella sibogae, the Bacterial Source” (J Nat Prod, 2020).

As a reminder, the IC50 is the point on the concentration scale where inhibition reaches its midpoint. Read a low IC50 as greater potency.

Common to all, as to format: functional, cell-based
Experiment [1] has as its system MCF7. Briefly: Cytotoxicity against human MCF7 cells after 44 hrs by MTT assay. To be noted: MCF7, 44 h. (Formazan colour is commonly taken as a measure of viable cells.)
Experiment [2] concerns MDA-MB-231. As to the kind of experiment: Cytotoxicity against human MDA-MB-231 cells after 44 hrs by MTT assay. To be noted: MDA-MB-231, 44 h.
Experiment [3] deals with NCI-H292. As to the kind of experiment: Cytotoxicity against human NCI-H292 cells after 44 hrs by MTT assay.
Experiment [4] deals with HepG2. Briefly: Cytotoxicity against human HepG2 cells after 44 hrs by MTT assay.
The test system of experiment [5] is A549. Briefly: Cytotoxicity against human A549 cells after 44 hrs by MTT assay.
For experiment [6], the system named is HCT-116. Briefly: Cytotoxicity against human HCT116 cells after 44 hrs by MTT assay.

Structures are written as SMILES. Calls of active or inactive are those of the source. The rule behind the calls is not given here.

Consider `C=C1CC[C@@H](C(C)C)[C@H]2/C=C(/C(=O)OC)CC/C=C(\C(=O)O)[C@H](O)C[C@H]12`, for which the IC50 in experiment [1] was more than 100 µM; in experiment [2], more than 100 µM; in experiment [3] (NCI-H292, 44 h), more than 100 µM; in experiment [4] (HepG2, 44 h), more than 100 µM; in experiment [5] (A549, 44 h), more than 100 µM; in experiment [6] (HCT-116, 44 h), more than 100 µM.
As for `C=C1CCC(=C(C)C)[C@H]2/C=C(/C(=O)OC)CC/C=C(\C(=O)O)[C@H](O)C[C@H]12`, the IC50 was 5.3 µM in experiment [1] and 8.6 µM in experiment [2]. In addition, the outcome in experiment [3], in experiment [4], in experiment [5] and in experiment [6] was Active.
